Assay results: paper PMC5829162, “Rational Design, Synthesis and Biological Evaluation of Pyrimidine-4,6-diamine derivatives as Type-II inhibitors of FLT3 Selective Against c-KIT” (Scientific Reports, 2018)
Where two headings read alike, the source gives them in different places.

What was measured:
Ba/F3 FLT3-ITD = assay: Cell proliferation (CellTiter-Glo, 48 h), Ba/F3 FLT3-ITD; assay type: cell-based
Excerpt: (§1) Stable BaF3 populations expressing activated FLT3 were generated by retroviral spinfection with the appropriate mutated plasmid followed by selection and growth factor withdrawal as previously described. The BaF3 cell line was originally obtained from the laboratory of Charles Sawyers and has not been authenticated. MV411 and Molm14 cells were obtained from the laboratory of Scott Kogan and authenticated by Promega STR analysis in June 2013. All cell lines were mycoplasma-free. Cells were incubated with compounds for 48 hours and proliferation was assessed using CellTiter-Glo (Promega; Madison, WI) according to the manufacturer’s recommendation on a SpectraMax M3 microplate reader using SpectraMax Software (Molecular Devices; Sunnyvale, CA). All cell viability data shown is reflective of experiments performed a minimum of three times. […]
(§2) S13. Cell Cultures: Stable BaF3 populations expressing activated FLT3 were generated by retroviral spinfection with the appropriate mutated plasmid followed by selection and growth factor withdrawal as previously described .4 The BaF3 cell line was originally obtained from the laboratory of Charles Sawyers and has not been authenticated. MV411 and Molm14 cells were obtained from the laboratory of Scott Kogan and authenticated by Promega STR analysis in June
(§3) 2013. All cell lines were mycoplasma -free. Cells were incubated with compounds for 48 hours and proliferation was assessed using CellTiter -Glo (Promega; Madison, WI) according to the manufacturer’s recommendation on a SpectraMax M3 microplate reader using SpectraMax Software (Molecular Devices; Sunnyvale, CA). All cell viability data shown is reflective of experiments performed a minimum of three times.

CSF-1R = CSF-1R (Homo sapiens, UniProt P07333); assay: Biochemical kinase selectivity assay, CSF-1R
MV4–11 AML cells = assay: Cell proliferation (CellTiter-Glo, 48 h), MV4-11; assay type: cell-based; settings: Homo sapiens; MV4–11, 48 hours
Excerpt: as §1, §2, §3

Molm14 par = assay: Cell proliferation (CellTiter-Glo, 48 h), Molm14 par; assay type: cell-based; settings: Homo sapiens, MOLM-14
Excerpt: as §1, §2, §3

FLT3 kinase = biological target: T1, FLT3 kinase (Homo sapiens, UniProt P36888); assay: Biochemical enzyme inhibition assay (microfluidics, Caliper EZ Reader II), FLT3; settings: for IC50: in vitro kinase assay, 60 min pre-incubation, ATP 190 µM, three independent experiments, read-out: FLT3 IC50 (nM) ± SD; for LE: ligand efficiency for FLT3 inhibition
T1 construct: purchased Invitrogen
T1 sequence (P36888 27-993): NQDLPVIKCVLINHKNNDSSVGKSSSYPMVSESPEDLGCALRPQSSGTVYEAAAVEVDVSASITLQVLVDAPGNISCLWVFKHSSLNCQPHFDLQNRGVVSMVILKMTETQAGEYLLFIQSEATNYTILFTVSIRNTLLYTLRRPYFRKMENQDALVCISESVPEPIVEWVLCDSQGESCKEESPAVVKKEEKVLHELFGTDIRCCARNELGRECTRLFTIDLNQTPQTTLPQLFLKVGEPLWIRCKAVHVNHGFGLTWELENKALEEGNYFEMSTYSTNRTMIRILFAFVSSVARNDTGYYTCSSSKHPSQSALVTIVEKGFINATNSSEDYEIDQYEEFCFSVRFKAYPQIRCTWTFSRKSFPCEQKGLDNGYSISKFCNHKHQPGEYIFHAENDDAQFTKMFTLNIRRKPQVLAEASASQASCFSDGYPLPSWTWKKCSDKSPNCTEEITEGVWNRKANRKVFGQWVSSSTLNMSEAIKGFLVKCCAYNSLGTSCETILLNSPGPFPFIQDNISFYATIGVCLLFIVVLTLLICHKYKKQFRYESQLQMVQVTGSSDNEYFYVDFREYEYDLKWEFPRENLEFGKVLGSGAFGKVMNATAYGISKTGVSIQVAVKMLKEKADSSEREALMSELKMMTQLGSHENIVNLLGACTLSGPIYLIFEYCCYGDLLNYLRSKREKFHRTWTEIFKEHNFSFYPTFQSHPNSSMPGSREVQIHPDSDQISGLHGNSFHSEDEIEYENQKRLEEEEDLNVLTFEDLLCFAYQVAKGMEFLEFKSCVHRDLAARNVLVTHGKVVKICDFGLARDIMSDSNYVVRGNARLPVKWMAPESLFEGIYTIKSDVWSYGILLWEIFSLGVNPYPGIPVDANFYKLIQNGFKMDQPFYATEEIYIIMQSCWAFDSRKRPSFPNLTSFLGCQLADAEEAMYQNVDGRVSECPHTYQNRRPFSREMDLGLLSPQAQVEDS

Sequence of CSF-1R (P07333 20-972, species assumed): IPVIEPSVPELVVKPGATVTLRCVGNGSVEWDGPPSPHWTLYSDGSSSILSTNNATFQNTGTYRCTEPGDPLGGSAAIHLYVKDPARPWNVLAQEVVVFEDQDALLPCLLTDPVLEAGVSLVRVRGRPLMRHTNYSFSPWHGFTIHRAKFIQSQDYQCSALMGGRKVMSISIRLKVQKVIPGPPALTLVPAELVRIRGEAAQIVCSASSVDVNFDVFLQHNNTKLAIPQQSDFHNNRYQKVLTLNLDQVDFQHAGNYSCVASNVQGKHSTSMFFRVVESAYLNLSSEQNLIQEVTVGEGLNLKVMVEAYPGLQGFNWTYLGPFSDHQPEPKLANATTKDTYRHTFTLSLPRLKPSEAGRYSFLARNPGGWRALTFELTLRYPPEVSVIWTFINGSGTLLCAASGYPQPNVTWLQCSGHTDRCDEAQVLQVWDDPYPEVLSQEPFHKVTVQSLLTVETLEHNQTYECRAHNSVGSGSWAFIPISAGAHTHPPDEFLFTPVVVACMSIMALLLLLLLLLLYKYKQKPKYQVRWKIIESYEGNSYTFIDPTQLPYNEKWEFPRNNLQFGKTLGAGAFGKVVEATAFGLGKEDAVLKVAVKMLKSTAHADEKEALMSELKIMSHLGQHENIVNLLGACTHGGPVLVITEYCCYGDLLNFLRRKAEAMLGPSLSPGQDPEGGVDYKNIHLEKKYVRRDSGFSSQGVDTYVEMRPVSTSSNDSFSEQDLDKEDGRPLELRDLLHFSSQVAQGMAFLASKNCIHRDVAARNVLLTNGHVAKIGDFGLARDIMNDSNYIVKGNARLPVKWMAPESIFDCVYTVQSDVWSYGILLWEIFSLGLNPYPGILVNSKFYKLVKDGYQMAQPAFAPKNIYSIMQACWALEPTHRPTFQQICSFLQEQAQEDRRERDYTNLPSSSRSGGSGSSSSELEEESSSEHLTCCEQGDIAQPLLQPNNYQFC

SMILES | GI50 (Ba/F3 FLT3-ITD) | IC50 (CSF-1R; in vitro kinase assay, read-out: CSF-1R IC50 (nM) ± SD) | IC50 (CSF-1R; read-out: CSF-1R IC50) | GI50 (MV4–11 AML cells) | GI50 (Molm14 par) | fold less inhibition on other closely related kinases versus FLT3 (FLT3 kinase; enzymatic level) | IC50 (FLT3 kinase) | LE (FLT3 kinase) | inhibition at 20 µM (CSF-1R; at 20 µM) | fold less active than 13a on FLT3 (FLT3 kinase; enzymatic FLT3 IC50 compared with 13a)
Cn1nc(C(C)(C)C)cc1NC(=O)Cc1ccc(Nc2cc(Nc3ccc(S(C)(=O)=O)cc3)ncn2)cc1 [13a, 2-(4-(6-(4-(Methylsulfonyl)phenylamino)pyrimidin-4-ylamino)phenyl)-N-(3-tert-butyl-1-methyl-1H-pyrazol-5-yl)acetamide] | 131 nM | 13000 nM | 13000 nM | 9.9 nM | 24.4 nM | > 100 fold | 13.9 nM | 0.28 |  | 
CC(C)(C)c1cc(NC(=O)Cc2ccc(Nc3cc(Nc4ccc(S(C)(=O)=O)cc4)ncn3)cc2)no1 [13k, 2-(4-(6-(4-(Methylsulfonyl)phenylamino)pyrimidin-4-ylamino)phenyl)-N-(5-tert-butylisoxazol-3-yl)acetamide] | 40.5 nM |  |  | 7.2 nM | 19.8 nM |  | 63 nM | 0.27 | 60.7% | ~ 5 fold
